Data reported in US6737383B1, “Herbicidal oxadiazolidines” (priority 1999, dated 2004).

Columns and labels:
crabgrass = assay: Test B pre/postemergence crabgrass; type: in vivo, Digitaria sanguinalis
Method in brief: (§1)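 Herbicidal effect was estimated by eye on a ten-point control scale after plants spent twelve to sixteen days in a greenhouse following soil or foliar treatment. Foliar sprays targeted plants at one to four leaves; all doses were formulated in a non-phytotoxic solvent with surfactant.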

soybean = assay: Test B pre/postemergence soybean; type: in vivo, Glycine max
Method in brief: as §1

wheat = assay: Test B pre/postemergence wheat; type: in vivo, Triticum aestivum
Method in brief: as §1

wild oat = assay: Test B pre/postemergence wild oat; type: in vivo, Avena fatua
Method in brief: as §1

smallflower flatsedge = assay: Test B flood test smallflower flatsedge; type: in vivo, Cyperus difformis
Method in brief: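 Flood test on plants grown to the 2-leaf stage; treated plants kept in greenhouse twelve to sixteen days, then visually rated against controls on a 0 (no effect) to 10 (complete control) scale.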

[1] = Postemergence, Rate 31 g/ha, visual rating, scale 0 to 10 (0 no effect, 10 complete control)
[2] = Preemergence, Rate 62 g/ha, scale of 0 to 10 where 0 is no effect and 10 is complete control
[3] = Preemergence, Rate 250 g/ha, scale of 0 to 10 where 0 is no effect and 10 is complete control
[4] = Rate 62 g/ha, Postemergence, scale 0 to 10 (0 no effect, 10 complete control)
[5] = Rate 125 g/ha, Postemergence, scale of 0 to 10 where 0 is no effect and 10 is complete control
[6] = Rate 125 g/ha, Preemergence, scale of 0 to 10 where 0 is no effect and 10 is complete control
[7] = Rate 250 g/ha, Postemergence, scale of 0 to 10 where 0 is no effect and 10 is complete control
[8] = Rate 125 g/ha, Pre-emergence, flood test species, scale 0 to 10 where 0 is no effect and 10 is complete control
[9] = Rate 250 g/ha, Pre-emergence, flood-test species, scale 0 to 10, 0 is no effect, 10 is complete control
[10] = Postemergence, Rate 1000 g/ha, scale 0 to 10 (0 no effect, 10 complete control)
[11] = Preemergence, Rate 500 g/ha, scale of 0 to 10 where 0 is no effect and 10 is complete control
[12] = Rate 500 g/ha, Postemergence, scale 0 to 10, 0 no effect, 10 complete control
[13] = Rate 1000 g/ha, Preemergence, scale 0 to 10 (0 no effect, 10 complete control)
[14] = Postemergence, Rate 125 g/ha, scale 0 to 10, 0 is no effect, 10 is complete control
[15] = Preemergence, Rate 62 g/ha, scale 0 to 10 (0 no effect, 10 complete control)
[16] = Rate 62 g/ha, Postemergence, scale of 0 to 10 where 0 is no effect and 10 is complete control
[17] = Postemergence, Rate 125 g/ha, scale of 0 to 10 where 0 is no effect and 10 is complete control
[18] = Preemergence, Rate 125 g/ha, scale of 0 to 10 where 0 is no effect and 10 is complete control
[19] = Postemergence, Rate 500 g/ha, scale of 0 to 10 where 0 is no effect and 10 is complete control

CC(C)N(C(=O)n1oc(=O)n(C(C)C)c1=O)c1cnccn1 [Compound 296]
Crabgrass plant response rating (crabgrass; [1]): 0
Crabgrass plant response rating (crabgrass; Preemergence, Rate 31 g/ha, visual rating, scale 0 to 10 (0 no effect, 10 complete control)): 0
Crabgrass plant response rating (crabgrass; [2]): 0
Crabgrass plant response rating (crabgrass; [3]): 0
Crabgrass plant response rating (crabgrass; [4]): 0
Crabgrass plant response rating (crabgrass; [5]): 0
Crabgrass plant response rating (crabgrass; [6]): 0
Plant response rating, Crabgrass (crabgrass; [7]): 0
Soybean plant response rating (soybean; [1]): 0
Soybean plant response rating (soybean; [2]): 0
Soybean plant response rating (soybean; [3]): 0
Soybean plant response rating (soybean; [4]): 0
Soybean plant response rating (soybean; [5]): 0
Soybean plant response rating (soybean; [6]): 0
Plant response rating, Soybean (soybean; [7]): 1
Wheat plant response rating (wheat; [1]): 0
Wheat plant response rating (wheat; [2]): 0
Wheat plant response rating (wheat; [3]): 0
Wheat plant response rating (wheat; [4]): 0
Wheat plant response rating (wheat; [5]): 0
Wheat plant response rating (wheat; [6]): 0
Plant response rating, Wheat (wheat; [7]): 0
Wild oats plant response rating (wild oat; [1]): 0
Wild oats plant response rating (wild oat; [2]): 0
Wild oats plant response rating (wild oat; [3]): 0
Wild oats plant response rating (wild oat; [4]): 0
Wild oats plant response rating (wild oat; [5]): 0
Plant response rating, Wild oats (wild oat; [7]): 0
S. Flatsedge plant response rating (smallflower flatsedge; Rate 31 g/ha, Pre-emergence section (flood test species), scale 0 to 10): 0
S. Flatsedge plant response rating (smallflower flatsedge; Rate 62 g/ha, headed Pre-emergence (flood test species), scale 0 to 10 (0 no effect, 10 complete control)): 0
S. Flatsedge plant response rating (smallflower flatsedge; [8]): 0
S. Flatsedge plant response rating (smallflower flatsedge; [9]): 0

CCOC(=O)C(C)N(C(=O)n1oc(=O)n(C2CCCCC2)c1=O)c1ccc(F)cc1 (stereo not drawn) [Compound 280]
Crabgrass plant response rating (crabgrass; [10]): 0
Crabgrass plant response rating (crabgrass; [3]): 0
Plant response rating, Crabgrass (crabgrass; [11]): 0
Crabgrass plant response rating (crabgrass; [5]): 0
Crabgrass plant response rating (crabgrass; [6]): 0
Plant response rating, Crabgrass (crabgrass; [7]): 0
Crabgrass plant response rating (crabgrass; [12]): 0
Plant response rating, Crabgrass (crabgrass; [13]): 0
Soybean plant response rating (soybean; [10]): 5
Soybean plant response rating (soybean; [3]): 0
Plant response rating, Soybean (soybean; [11]): 0
Soybean plant response rating (soybean; [5]): 1
Soybean plant response rating (soybean; [6]): 0
Plant response rating, Soybean (soybean; [7]): 3
Soybean plant response rating (soybean; [12]): 5
Plant response rating, Soybean (soybean; [13]): 0
Wheat plant response rating (wheat; [10]): 0
Wheat plant response rating (wheat; [3]): 0
Plant response rating, Wheat (wheat; [11]): 0
Wheat plant response rating (wheat; [5]): 0
Wheat plant response rating (wheat; [6]): 0
Plant response rating, Wheat (wheat; [7]): 0
Wheat plant response rating (wheat; [12]): 0
Plant response rating, Wheat (wheat; [13]): 0
Wild oats plant response rating (wild oat; [10]): 0
Wild oats plant response rating (wild oat; [3]): 0
Plant response rating, Wild oats (wild oat; [11]): 0
Wild oats plant response rating (wild oat; [5]): 0
Plant response rating, Wild oats (wild oat; [7]): 0
Wild oats plant response rating (wild oat; [12]): 0
Plant response rating, Wild oats (wild oat; [13]): 0
S. Flatsedge plant response rating (smallflower flatsedge; Pre-emergence, Rate 1000 g/ha, scale 0 to 10 (0 no effect, 10 complete control)): 0
S. Flatsedge plant response rating (smallflower flatsedge; [8]): 0
S. Flatsedge plant response rating (smallflower flatsedge; [9]): 0
S. Flatsedge plant response rating (smallflower flatsedge; Rate 500 g/ha, Pre-emergence, flood test species, scale 0 to 10 (0 no effect, 10 complete control)): 0

CC(C)C(C)n1c(=O)on(C(=O)N(c2ccccc2)C(C)C)c1=O (stereo not drawn) [Compound 355]
Plant response rating, Crabgrass (crabgrass; [14]): 0
Plant response rating, Crabgrass (crabgrass; [15]): 4
Crabgrass plant response rating (0 to 10 scale) (crabgrass; Preemergence, Rate 125 g/ha): 10
Crabgrass plant response rating (crabgrass; [3]): 10
Crabgrass plant response rating (crabgrass; [11]): 10
Crabgrass plant response rating (crabgrass; [16]): 0
Plant response rating, Crabgrass (crabgrass; [12]): 2
Plant response rating, Soybean (soybean; [14]): 2
Plant response rating, Soybean (soybean; [15]): 0
Soybean plant response rating (0 to 10 scale) (soybean; Preemergence, Rate 125 g/ha): 0
Soybean plant response rating (soybean; [3]): 0
Soybean plant response rating (soybean; [11]): 0
Soybean plant response rating (soybean; [16]): 1
Plant response rating, Soybean (soybean; [12]): 3
Plant response rating, Wheat (wheat; [14]): 2
Plant response rating, Wheat (wheat; [15]): 0
Wheat plant response rating (0 to 10 scale) (wheat; Preemergence, Rate 125 g/ha): 0
Wheat plant response rating (wheat; [3]): 0
Wheat plant response rating (wheat; [11]): 2
Wheat plant response rating (wheat; [16]): 0
Plant response rating, Wheat (wheat; [12]): 3
Plant response rating, Wild oats (wild oat; [14]): 3
Plant response rating, Wild oats (wild oat; [15]): 0
Wild oats plant response rating (0 to 10 scale) (wild oat; Preemergence, Rate 125 g/ha): 0
Wild oats plant response rating (wild oat; [3]): 0
Wild oats plant response rating (wild oat; [11]): 9
Wild oats plant response rating (wild oat; [16]): 0
Plant response rating, Wild oats (wild oat; [12]): 5
Plant response rating, S. Flatsedge (smallflower flatsedge; Postemergence (flood test), Rate 125 g/ha, scale 0 to 10, 0 is no effect, 10 is complete control): 2
S. Flatsedge plant response rating (smallflower flatsedge; Rate 62 g/ha, Postemergence (flood test species), scale of 0 to 10 where 0 is no effect and 10 is complete control): 0
Plant response rating, S. Flatsedge (smallflower flatsedge; Rate 500 g/ha, listed under Postemergence (flood test species), scale 0 to 10, 0 no effect, 10 complete control): 8

CC(C)N(C(=O)n1oc(=O)n(CC2CCC2)c1=O)c1ccccc1 [Compound 580]
Crabgrass plant response rating (crabgrass; Postemergence, Rate 62 g/ha, scale of 0 to 10, 0 is no effect, 10 is complete control): 0
Plant response rating, Crabgrass (crabgrass; [17]): 3
Crabgrass plant response rating (crabgrass; [15]): 6
Crabgrass plant response rating (crabgrass; [18]): 6
Crabgrass plant response rating (0 to 10 scale) (crabgrass; Preemergence, Rate 250 g/ha): 9
Crabgrass plant response rating (crabgrass; [11]): 9
Plant response rating, Crabgrass (crabgrass; [7]): 9
Plant response rating, Soybean (soybean; [17]): 4
Plant response rating, Soybean (soybean; [19]): 4
Soybean plant response rating (soybean; [18]): 0
Soybean plant response rating (0 to 10 scale) (soybean; Preemergence, Rate 250 g/ha): 0
Soybean plant response rating (soybean; [11]): 0
Plant response rating, Soybean (soybean; [7]): 4
Plant response rating, Wheat (wheat; [17]): 0
Plant response rating, Wheat (wheat; [19]): 3
Wheat plant response rating (wheat; [15]): 0
Wheat plant response rating (wheat; [18]): 0
Wheat plant response rating (0 to 10 scale) (wheat; Preemergence, Rate 250 g/ha): 2
Wheat plant response rating (wheat; [11]): 5
Plant response rating, Wheat (wheat; [7]): 0
Plant response rating, Wild oats (wild oat; [17]): 0
Plant response rating, Wild oats (wild oat; [19]): 7
Wild oats plant response rating (wild oat; [15]): 0
Wild oats plant response rating (wild oat; [18]): 0
Wild oats plant response rating (0 to 10 scale) (wild oat; Preemergence, Rate 250 g/ha): 2
Wild oats plant response rating (wild oat; [11]): 5
Plant response rating, Wild oats (wild oat; [7]): 3
Plant response rating, S. Flatsedge (0 to 10 scale, 0 is no effect, 10 is complete control) (smallflower flatsedge; Rate 62 g/ha, flood test species, Pre-emergence, visual evaluation after twelve to sixteen days): 0
S. Flatsedge plant response rating (0 to 10 scale, 0 is no effect, 10 is complete control) (smallflower flatsedge; Rate 125 g/ha, under heading Pre-emergence, flood test species, visual evaluation after twelve to sixteen days): 0
S. Flatsedge plant response rating (smallflower flatsedge; Rate 250 g/ha, Pre-emergence (flood test species), scale 0 to 10, 0 is no effect, 10 is complete control): 0
S. Flatsedge plant response rating (smallflower flatsedge; Rate 500 g/ha, Pre-emergence section of Table B, 0 to 10 scale (0 no effect, 10 complete control)): 0
